Source: publication PMC2361176, “Inhibitory effects of retinoic acid metabolism blocking agents (RAMBAs) on the growth of human prostate cancer cells and LNCaP prostate tumour xenografts in SCID mice” (British Journal of Cancer, 2006)
pIC50: −log10 of the molar value.

What was measured:
[1] = system: LNCaP cells; test: TUNEL assay of apoptosis in LNCaP cells; assay type: cell-based, human; settings: 6 days; for induction of apoptosis (TUNEL): 1 or 5 μM; for percentage of apoptotic cells (TUNEL): 5 μM
Procedure: A total of 4000 LNCaP cells were plated on each well of an eight-well Lab-Tek II® chamber slide (Nalge Nunc International, Naperville, IL, USA). The LNCaP cells were then treated with either 1 or 5 μM of ATRA or RAMBA for 6 days. Cells were then fixed in 4% paraformaldehyde solution in dH2O. The cells were then processed and stained with FITC (fluorescein isothiocyanate) according to kit instructions (In situ cell death detection kit, AP, Roche Diagnostics Corp., Indianapolis, IN, USA). The FITC-stained cells are then mounted with VectorShield® mounting medium for fluorescence with DAPI (4′,6-diamidine-2′-phenylindole dihydrochloride) nuclear stain (Vector Laboratories, Inc., Burlingame, CA, USA) and covered with ApopTag® plastic coverslips (Intergen Company, Purchase, NY, USA). The slides were then examined under fluorescence microscopy (Eclipse E400, Nikon, Inc., Melville, NY, USA) and counted using SPOT Advance® 3.5 software (Diagnostic Instruments, Inc., Sterling Heights, MI, USA).

[2] = system: LNCaP cells; test: Cell-cycle analysis (propidium iodide, FACScan); assay type: cell-based, human; settings: 5 μM, 6 days; for Sub-G1 (%): apoptotic cells, control 9.02; for G2/M (%): control 2.20; for S (%): control 15.01; for G0/G1 (%): control 82.78
Procedure: LNCaP cells were treated with 1 or 5 μM of ATRA or each of the RAMBAs for 6 days. The cells were trypsinised and washed twice in PBS (Life Technologies, Grand Island, NY, USA). The cells were fixed by adding 70% ethanol and stored at −20°C until staining. The cells were washed twice in PBS. A volume of 1 ml of a propidium iodide (PI) solution (50 μg ml^−1 in PBS) and 500 μl of an RNase stock solution (100 μg ml^−1) were added to the cells and incubated for 1 h in the dark. Approximately 10^4 stained cells were then analysed by flow cytometry (Becton Dickenson FACScan, Franklin Lakes, NJ, USA). The percentages of cells in G0/G1, S, and G2/M phases of the cell cycle as well as percentage of apoptotic cells (sub G0/G1) were determined using MODFIT LT software (Verity Software House, San Jose, CA, USA). The percentages of cells in G0/G1, S, and G2/M phases of the cell cycle were obtained from diploid cells in the sample and the percentage of apoptotic cells (sub G0/G1) was obtained from total cells minus the debris.

[3] = system: LNCaP cells; test: WST-1 cell viability / LNCaP cell growth inhibition assay; assay type: cell-based; settings: Homo sapiens, 144 h, 6 days, read-out: Cell growth inhibition, agents alone, IC50
Procedure: To measure cell viability, 24-well plates were coated with a 0.05% poly-L-lysine solution for 30 min. The wells were then washed with sterilised dH2O. LNCaP cells (1 × 10^4) were seeded in the plates and maintained in RPMI 1640 medium (Gibco-Invitrogen, Carlsbad, CA, USA). The cells were allowed to attach for 36 h. After attachment, fresh media was added and the cells were treated with a concentration range of either ATRA or each of the RAMBAs for 6 days. The media was changed every 3 days. On the day the assay was performed, the media was removed and 1 ml of a stock solution of WST-1 (4-[3-(4-iodophenyl)-2-(4-nitrophenyl)-2H-5-tetrazolio]-1,3-benzene disulfonate) cell proliferation reagent (Boehringer Mannheim, Indianapolis, IN, USA), diluted 1 : 10 in RPMI 1640 medium (without FBS), was added to each well. The plates were incubated at 37°C for 3 h. The media was then removed and 500 μl of DMSO was added and agitated vigorously for 5 min. The slightly red tetrazolium salt WST-1 is reduced to a dark red, water-soluble formazan product by mitochondrial dehydrogenase from living cells, which gives absorbance at a wavelength of 450 nm.

[4] = system: cytokeratin 8/18; test: Differentiation assay (Western-blot analysis of cytokeratins 8/18); assay type: cell-based, human; settings: LNCaP cells, 6 days; for cytokeratin 8/18 expression, fold over control: 1 μM agent alone; for cytokeratin 8/18 expression, fold over control / cytokeratin 8/18 expression, fold over control, combination with ATRA: control 1±0.07; for expression of cytokeratin 8/18 (concentration dependence): various concentrations; for cytokeratin 8/18 expression, fold over control, combination with ATRA: 1 μM RAMBA and 1 μM ATRA
Procedure: LNCaP cells were scraped with 1.5 ml of PBS. The cells were collected by centrifugation, resuspended in ice-cold cell lysis buffer (0.1 M Tris-HCl, 0.5% Triton X-100, and protease inhibitor cocktail (Boehringer, Indianapolis, IN, USA)), and sonicated. The homogenates were incubated on ice for 30 min, subjected to centrifugation at 13 000 × g for 30 min, and the supernatants were separated and stored at −80°C until use. Protein concentrations were determined by the Bradford method using a Bio-Rad kit (Hercules, CA, USA). A measure of 50 μg of cell lysate was subjected to 10% sodium dodecyl sulfate-polyacrylamide gel electrophoresis (SDS–PAGE) using the Mini-PROTEAN3 electrophoresis module assembly (Bio-Rad, Hercules, CA, USA) at 60 V at room temperature. The separated lysates on 10% SDS–PAGE gel were transferred onto Hybond ECL nitrocellulose membrane (Amersham, Arlington Heights, IL, USA) overnight at 20 V at 4°C. Western-blot analysis was performed on the nitrocellulose membrane. The membrane was blocked for 1 h in 10% nonfat dried milk and PBS containing 0.5% Tween 20 (PBS-T) at room temperature. Following washing in PBS-T, the membrane was incubated with mouse monoclonal IgG antibody to cytokeratin 8/18 or β-actin (Santa Cruz Biotechnology, Santa Cruz, CA, USA and Oncogene Research Products, Boston, MA, USA, respectively) dissolved in 10% nonfat dried milk (1 : 5000 or 1 : 10 000), respectively) for l h at room temperature. Following washing, the membrane was incubated with horseradish peroxidase-linked anti-mouse IgG antibody (Amersham, Arlington Heights, IL, USA and Oncogene Research Products, Boston, MA, USA, respectively) dissolved in 10% nonfat dried milk (1 : 1000) for 1 h at room temperature. The membrane was incubated in 4 ml ECL Western Blotting Analysis System (Amersham, Arlington Heights, IL, USA) for 1 min at room temperature. The membrane was resolved on chemiluminescence film (Amersham Hyperfilm High Performance chemiluminescence film, Arlington Heights, IL, USA) and the film was developed using an X-ray developer (M35A X-OMAT Processor, Eastman Kodak Company, Rochester, NY, USA). The intensity of the bands on film was analysed using ImageQuant 5.0 software (Amersham, Arlington Heights, IL, USA). The band intensity corresponds to the level of protein expression of cytokeratin 8/18, which is shown to be expressed in differentiated cells of epithelial origin ([Peehl et al, 1993]; [Hsieh et al, 1995]).

| pIC50 [3] | SMILES | induction of apoptosis (TUNEL) [1] | Sub-G1 (%) [2] [%] | G2/M (%) [2] [%] | S (%) [2] [%] | G0/G1 (%) [2] [%] | cytokeratin 8/18 expression, fold over control [4] [fold] | cytokeratin 8/18 expression compared to control ([4]; 5 and 10 μM, P<0.05, data not shown) | expression of cytokeratin 8/18 (concentration dependence) ([4]; data not shown) | percentage of apoptotic cells (TUNEL) [1] [%] | cytokeratin 8/18 expression, fold over control, combination with ATRA [4] [fold] |
| --- | --- | --- | --- | --- | --- | --- | --- | --- | --- | --- | --- |
| 5.00 | CC1=C(/C=C/C(C)=C/C=C/C(C)=C/C(=O)O)C(C)(C)CCC1n1ccnc1 (centres unmarked) [VN/14-1] | concentration-dependent induction of apoptosis | 17.88 | 10.15 | 7.26 | 82.59 | 1.18 | – | concentration-dependent increase | 17.03 | 1.59 |
| 5.35 | CC1=C(/C=C/C(C)=C/C=C/C(C)=C/C(=O)Nc2ccc(O)cc2)C(C)(C)CCC1n1ccnc1 (centres unmarked) [VN/66-1] | concentration-dependent induction of apoptosis | 14.49 | 5.07 | 11.14 | 83.80 | 1.28 | – | concentration-dependent increase | – | 1.48 |
| 5.30 | CC1=C(/C=C/C(C)=C/C=C/C(C)=C\C(=O)Nc2ccc(O)cc2)C(C)(C)CCC1n1ccnc1 (centres unmarked) [VN/69-1] | concentration-dependent induction of apoptosis | 13.39 | 6.20 | 11.14 | 82.66 | 1.19 | – | concentration-dependent increase | – | 1.32 |

| SMILES | pIC50 [3] | induction of apoptosis (TUNEL) [1] | Sub-G1 (%) [2] [%] | G2/M (%) [2] [%] | S (%) [2] [%] | G0/G1 (%) [2] [%] | cytokeratin 8/18 expression, fold over control [4] [fold] | cytokeratin 8/18 expression compared to control ([4]; 5 and 10 μM, P<0.05, data not shown) | expression of cytokeratin 8/18 (concentration dependence) ([4]; data not shown) | percentage of apoptotic cells (TUNEL) [1] [%] | cytokeratin 8/18 expression, fold over control, combination with ATRA [4] [fold] |
| --- | --- | --- | --- | --- | --- | --- | --- | --- | --- | --- | --- |
| CC1=C(/C=C/C(C)=C/C=C/C(C)=C/C(=O)O)C(C)(C)CCC1 [ATRA, all-trans-retinoic acid, reference compound] | 5.37 | concentration-dependent induction of apoptosis | 13.64 | 12.42 | 9.84 | 77.74 | 1.38 | significant increase | concentration-dependent increase | – | – |
| CC1=C(/C=C/C(C)=C/C=C/C(C)=C/C(=O)n2ccnc2)C(C)(C)CCC1n1ccnc1 (centres unmarked) [VN/50-1] | 5.22 | concentration-dependent induction of apoptosis | 17.67 | 7.30 | 11.38 | 81.33 | 1.23 | – | concentration-dependent increase | 17.03 | 1.51 |
